Test results as given in patent US8883415B2, “Aza-benzazolium containing cyanine dyes” (Life Technologies Corporation, priority 1999, dated 2014).
“Also recorded” adds a separate entry of the source.

Assays:
[1] = test system: double-stranded bacteriophage λ cl857 DNA that is digested with HindIII restriction endonuclease; test: Detecting nucleic acids in gels; format: binding; conditions: POLAROID 667 B&W film; FOTODYNE 254 nm epi.; 1 micromolar dye
[2] = test system: double-stranded bacteriophage λ cl857 DNA that is digested with HindIII restriction endonuclease; test: Detecting nucleic acids in gels; format: binding; conditions: 1 micromolar dye
Description: DNA samples are loaded onto agarose or polyacrylamide gels and electrophoresed using standard conditions. Selected dyes of the invention are dissolved in DMSO at a concentration of 1-10 micromolar and diluted into 0.5×TBE buffer to a final concentration of 1 micromolar dye. Gels are incubated for 20-90 minutes in this staining solution, with gentle agitation, at room temperature, protected from light. Nucleic acids are visualized by transillumination at 300 nm, followed by direct visual detection or photography using Polaroid black-and-white print film. Nucleic acids are alternatively visualized by scanning using a FMBIO II laser scanner with a 532 nm frequency-doubled YAG laser source or a charge-coupled device camera system coupled with an ultraviolet (300 nm) light source, or a visible light transilluminator.

double-stranded DNA [3] = test: Detecting double-stranded DNA in the presence of single-stranded DNA; format: binding; conditions: nucleic acids 2 micrograms/mL; dye 1 micromolar; excitation 540 nm, emission 570 nm
Description: Samples containing nucleic acids at a concentration of 2 micrograms/mL are combined with Compound 16, Compound 22, or Compound 24 at a final dye concentration of 1 micromolar in 10 mM Tris-HCl, 1 mM EDTA, pH 7.5, and mixed gently. The resulting mixture is allowed to incubate for 5-60 minutes at room temperature, protected from light, and sample fluorescence is measured using a fluorescence microplate reader, with excitation at 540 nm and emission at 570 nm. […] If, however, the dye concentration is reduced relative to the concentration of single-stranded nucleic acids, the fluorescence upon binding those nucleic acids increases relative to that of the double-stranded DNA-dye complex. Thus the assay is always performed in sufficient dye excess.

double-stranded DNA [4] = test: Detecting double-stranded DNA in solution (fluorescence microplate reader); format: binding
Description: Samples containing 0.1 ng/mL to 1 microgram/mL double-stranded DNA are prepared in 10 mM Tris-HCl, 1 mM EDTA, pH 7.5. The selected dye of the invention is dissolved in DMSO at a concentration of 1-10 mM and then diluted into the same buffer at a concentration sufficient to achieve final optical densities of 0.1 and 0.01 at 500 nm, 530 nm, 540 nm or 560 nm. Equal volumes (100 microliters each) of DNA sample solution and dye solution at each concentration are combined and mixed gently at room temperature in a microplate well.
Samples are allowed to equilibrate for 5-60 minutes, protected from light, and the fluorescence of the sample is measured using a fluorescence microplate reader. DNA concentration is determined by comparison of the sample fluorescence with a standard curve obtained with that dye for each dye concentration. The sensitivity limit of several dyes in this assay is shown (Table 5).

proteins = test: Detection of proteins in SDS-polyacrylamide gels; format: binding; conditions: 1-3 μM dye in 7.5% acetic acid
Description: The pure protein or mixture of proteins of interest is prepared in Loading Buffer (50 mM Tris-HCl, pH 6.8, 2% SDS, 10% glycerol, and 0.015% bromophenol blue). Dithiothreitol is added to each sample, to a final concentration of 0.1 M. The samples are heated for 4-5 minutes at 90-95 °C and loaded onto a 15% Tris-glycine polyacrylamide mini- or full-sized gel containing 0.05%-0.1% SDS, with a 4% stacking gel. The gel is electrophoresed under standard conditions, in a standard Tris-glycine buffer containing 0.05%-0.1% SDS. The resulting gel is transferred to a small staining dish containing a 1-3 μM solution of Compound 25 in 7.5% acetic acid (in water). The staining solution is then covered with foil to protect it from room light and gently agitated for 45 minutes-1 hour. […] The gel is then removed from the staining dish, rinsed briefly in 7.5% acetic acid and transferred directly to a UV-transilluminator. The gel, with the stained protein bands is photographed using 300 nm transillumination and black and white POLAROID 667 print film with a Wratten 9 gelatin filter. […] Proteins appear as white bands on a grey to black background in the POLAROID photograph.

[5] = test system: 18-base oligodeoxynucleotide sequencing primer; test: Detecting oligonucleotides in solution; format: binding; conditions: Excitation 540 nm/Emission 570 nm
Description: Selected dyes of the invention are dissolved in DMSO at 1-10 micromolar concentration, then diluted into 10 mM Tris-HCl, 1 mM EDTA, pH 7.5 to a final optical density of 0.1 or 0.01 at 530 nm or 540 nm. The resulting dye solutions are combined with an equal volume of an 18-base oligodeoxynucleotide sequencing primer solution at concentrations of 0.1 ng/mL to 1 microgram/mL in the same buffer. The resulting mixture is mixed gently and incubated for 5-60 minutes at room temperature, protected from light, and the sample fluorescence is measured in a fluorescence microplate reader.

[6] = test system: Escherichia coli ribosomal RNA; test: Detecting RNA in solution; format: binding; conditions: Excitation 540 nm/Emission 570 nm
Description: Selected dyes of the invention are dissolved in DMSO at 1-10 micromolar concentration, then diluted into 10 mM Tris-HCl, 1 mM EDTA, pH 7.5 to a final optical density of 0.1 or 0.01 at 530 nm or 540 nm. These dye solutions are combined with an equal volume of Escherichia coli ribosomal RNA at concentrations ranging from 0.25 ng/mL to 1 microgram/mL in microplate wells. The resulting mixtures are mixed gently and incubated for 5-60 minutes at room temperature, protected from light, and the sample fluorescence is measured.

[7] = test system: Jurkat human T-cell leukemia cells; test: Detection of apoptosis by flow cytometry; format: cell-based; conditions: 30 minutes on ice, 488 nm excitation
Description: A 1 mM solution of Compound 27 in DMSO is prepared. Jurkat human T-cell leukemia cells are treated with 10 μM camptothecin to induce apoptosis. A sample of the cells (1×10^8 cells/mL) is incubated with enough of the Compound 27 stock solution to give a final dye concentration of 0.1 μM, and sufficient propidium iodide to give a final concentration of 1.5 μM. After incubating for 30 minutes on ice, the cell samples are analyzed on a FacsVantage flow cytometer using 488-argon laser excitation, with emission at 530/30 and 675/20. Apoptotic cells are compared to control cells that were incubated with the same final concentration of DMSO used in the staining solution.

bovine serum albumin = bovine serum albumin (Bos taurus, UniProt P02769); test: Detecting proteins in solution; format: binding; conditions: 2 micromolar dye, 0.05% SDS; either 10 minutes at 90° C. or 5-60 minutes at room temperature
Description: Compound 51 and Compound 44 are dissolved in DMSO at 1-10 mM and then diluted into 10 mM Tris-HCl, 1 mM EDTA, pH 7.5, containing 0.05% sodium dodecyl sulfate, to a final concentration of 2 micromolar. This dye solution is combined with samples containing bovine serum albumin at 100 ng/mL to 10 micrograms/mL. Samples are optionally incubated for 10 minutes at 90° C. and then cooled to room temperature, or are incubated for 5-60 minutes at room temperature. Fluorescence is measured using a fluorescence microplate reader with excitation at 540 nm and emission at 590 nm for Compound 44 and with excitation at 600 nm and emission at 670 nm for Compound 51. The fluorescence signal obtained from Compound 44 or 51 in buffer alone (control) is subtracted from the fluorescence recorded for the protein-containing samples in order to determine the intensity of the signal that is due to the presence of protein. Protein concentrations are then determined by comparison of the signal intensity thus obtained with the signals obtained using a dilution series of known concentration prepared using either the same protein or a protein standard, such as bovine serum albumin. The sensitivity limit for either dye under either condition is about 100 ng/mL bovine serum albumin (FIGS. 3 and 4).

DNA = test: Excitation and emission wavelengths when associated with DNA; format: physicochemical
[8] = BOEHRINGER MANNHEIM LUMIIMAGER CCD, 300 nm trans., 520 nm em.
[9] = BOEHRINGER MANNHEIM LUMIIMAGER CCD, 300 nm trans., 545 nm em
[10] = HITACHI FMBIO II laser scanner, 532 nm freq.-doubled YAG laser
[11] = POLAROID 667 B&W film, DARK READER visible light box
[12] = POLAROID 667 B&W film, FOTODYNE 300 nm trans.
[13] = Excitation 540 nm/Emission 570 nm
[14] = Excitation 530 nm/Emission 560 nm

Sequence of bovine serum albumin (P02769 25-607): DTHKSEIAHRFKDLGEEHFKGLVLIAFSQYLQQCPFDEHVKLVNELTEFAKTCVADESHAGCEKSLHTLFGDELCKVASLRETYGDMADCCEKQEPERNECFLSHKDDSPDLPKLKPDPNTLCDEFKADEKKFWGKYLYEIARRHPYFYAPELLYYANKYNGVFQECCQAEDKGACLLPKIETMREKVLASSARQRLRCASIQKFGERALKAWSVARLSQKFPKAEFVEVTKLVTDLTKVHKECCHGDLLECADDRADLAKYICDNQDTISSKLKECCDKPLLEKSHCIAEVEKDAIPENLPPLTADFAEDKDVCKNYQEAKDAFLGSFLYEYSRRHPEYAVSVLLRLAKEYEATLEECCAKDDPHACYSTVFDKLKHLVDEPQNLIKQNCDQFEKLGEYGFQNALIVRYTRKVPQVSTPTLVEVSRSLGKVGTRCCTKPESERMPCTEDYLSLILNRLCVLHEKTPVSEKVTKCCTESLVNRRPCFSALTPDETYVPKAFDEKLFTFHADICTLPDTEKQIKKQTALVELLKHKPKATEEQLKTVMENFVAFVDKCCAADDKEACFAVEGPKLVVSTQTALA

| SMILES | Sensitivity for detecting double-stranded DNA in agarose gels [1] [pg] | Sensitivity for detecting double-stranded DNA in agarose gels [2, 8] [pg] | Sensitivity for detecting double-stranded DNA in agarose gels [2, 9] [pg] | Sensitivity for detecting double-stranded DNA in agarose gels [2, 10] [pg] | Sensitivity for detecting double-stranded DNA in agarose gels [2, 11] [pg] | Sensitivity for detecting double-stranded DNA in agarose gels [2, 12] [pg] | Preferential fluorescent staining of double-stranded DNA in the presence of single-stranded DNA and RNA (double-stranded DNA [3]) | Sensitivity Limit, High dye concentration (0.1 OD) (double-stranded DNA [4]; [13]) [ng/mL] | Sensitivity Limit, Low dye concentration (0.01 OD) (double-stranded DNA [4]; [13]) [ng/mL] | further results |
| --- | --- | --- | --- | --- | --- | --- | --- | --- | --- | --- |
| CN1C(c2ccccc2)=C/C(=C\c2nc3c(ccc[n+]3C)o2)c2ccccc21.[I-] [Compound 16] | 30 | 210 | 50 | 25 | 240 | 120 | preferential fluorescent staining of double-stranded DNA; also recorded: detected preferentially | <10 | 1.0 |  |
| CCN(CC)Cc1ccc(C2=C/C(=C\c3nc4c(ccc[n+]4C)o3)c3ccccc3N2C)cc1.[I-] [Compound 22] | 30 | 830 | 50 | 7 | 60 | 120 | preferential fluorescent staining of double-stranded DNA; also recorded: detected preferentially | 10 | 1.0 |  |
| CC[N+](C)(CC)Cc1ccc(C2=C/C(=C\c3nc4c(ccc[n+]4C)o3)c3ccccc3N2C)cc1 [Compound 24] | 30 | 420 | 50 | 5 | 120 | 60 | detected preferentially | 10 | 5.0 |  |
| CC[N+](C)(CC)Cc1ccc(C2=C/C(=C\c3nc4c(ccc[n+]4C)o3)c3cc(OC)ccc3N2C)cc1 [Compound 25] | 120 | 1700 | 100 | 25 | 240 | 120 |  | <10 | 0.5 | Visual appearance of stained protein bands (proteins; 300 nm transillumination): brightly fluorescent orange bands; Visibility of protein bands in stained gel (proteins; after 10 minutes): protein bands are readily apparent; Sensitivity Limit, High dye concentration (0.1 OD) [5]: <10 ng/mL; Sensitivity Limit, Low dye concentration (0.01 OD) [5]: >10 ng/mL; Sensitivity Limit, High dye concentration (0.1 OD) [6]: 200 ng/mL; Sensitivity Limit, Low dye concentration (0.01 OD) [6]: 1.2 ng/mL |
| C[n+]1cccc2oc(/C=C3\C=CN(CCC[N+](C)(C)C)c4ccccc43)nc21 [Compound 27] |  |  |  |  |  |  |  |  |  | Differentiation of apoptotic and normal cells (plot of FL1 versus FL3) ([7]; 0.1 μM dye, 10 μM camptothecin-induced apoptosis): capable of differentiating between apoptotic and normal cells; Sensitivity Limit, High dye concentration (0.1 OD) (double-stranded DNA [4]; [14]): 20 ng/mL; Sensitivity Limit, Low dye concentration (0.01 OD) (double-stranded DNA [4]; [14]): 0.5 ng/mL |
| CCCCC1=C/C(=C\c2nc3c(cc(Br)c[n+]3C)s2)c2ccccc2N1c1ccccc1.[I-] [Compound 44] |  |  |  |  |  |  |  |  |  | Sensitivity limit for bovine serum albumin (bovine serum albumin): about 100 ng/mL |
| CN1C(c2ccccc2)=C/C(=C\C=C\c2nc3c(ccc[n+]3C)o2)c2ccccc21.[I-] [Compound 51] |  |  |  |  |  |  |  |  |  | Sensitivity limit for bovine serum albumin (bovine serum albumin): about 100 ng/mL |
| CN1C=C/C(=C\C(=C\c2sc3ccccc3[n+]2C)c2ccccc2)c2ccccc21 [Compound 60] |  |  |  |  |  |  |  |  |  | Emission wavelength (DNA): 659 nm; Excitation wavelength (DNA): 642 nm |
| CC[N+](C)(CC)CCC[n+]1c(-c2ccccc2)c2cc(N)ccc2c2ccc(N)cc21.[I-].[I-] [propidium iodide, reference compound] |  |  |  |  |  |  |  |  |  | Cells stained ([7]; 1.5 μM): Late stage apoptotic and necrotic cells are stained |
